Experiments:
E. coli ATCC 8739 = assay: In vivo antibiotic efficacy by ELLecSA in rats infected intraperitoneally; settings: for ELLecSA levels, increase over baseline (no antibiotic): rats, 2e9 CFU i.p., antibiotic 100 μg/kg at 4 hours, terminal blood draw 8 hours after infection; for ELLecSA signal in treated group vs sham treatment: wistar rats, treatment four hours after infection, blood draw after another four hours
[1] = test system: amp-C mutant Enterobacter cloacae; assay: Time course antibiotic treatment of amp-C mutant Enterobacter cloacae, MAMP detection by ELLecSA; format: cell-based; settings: 100 μg/mL antibiotic
E. cloacae = assay: Antibiotic treatment of E. cloacae tracked by FcMBL ELLecSA detection of MAMPs; settings: for treatment efficacy from increase or spike in ELLecSA signal over time: 24-hr time course, E. cloacae 10e8 CFU/ml, 1 mg/ml antibiotic; for susceptibility of E. cloacae to the antibiotic: as stated for the test pathogen
[2] = test system: clinical isolate of E. coli; assay: Antibiotic treatment of clinical isolate of E. coli, MAMP detection by ELLecSA; format: cell-based; settings: FIG. 16D strain
Experimental: FIGS. 16A-16E show lysing microbes by antibiotic treatment to increase MAMPs for FcMBL-coated bead capture and ELLecSA detection. In FIG. 16A, FcMBL coated beads were used to detect the presence of MAMPs from a clinical isolate of Enterobacter cloacae after 4 hour treatments of cefepime and meropenem. Detection of MAMPs was done by ELLecSA using rhMBL-hrp. In FIG. 16B, FcMBL coated beads were used to detect the presence of MAMPs from a clinical isolate of Salmonella typhimurium after 4 hour treatments of cefepime. Detection of MAMPs was done by ELLecSA using rhMBL-hrp. In FIG. 16C, FcMBL coated beads were used to detect the presence of MAMPs from a clinical isolate of E. coli after 4 hour treatment of cefepime and amikacin. Detection of MAMPs was done by ELLecSA using rhMBL-hrp. In FIG. 16D, FcMBL coated beads were used to detect the presence of MAMPs from a clinical isolate of E. coli after 4 hour treatment of cefepime and amikacin. Detection of MAMP's was done by ELLecSA using rhMBL-hrp. […]. Time course antibiotics were administered. Optimal MAMP detection occurred at 4 hours with 100 ug/mL cefepime.

With `C[C@@H](O)[C@H]1C(=O)N2C(C(=O)O)=C(S[C@@H]3CN[C@H](C(=O)N(C)C)C3)[C@H](C)[C@H]12` [meropenem] the “ELLecSA levels, increase over baseline (no antibiotic)” value (E. coli ATCC 8739) was 2 fold and the “ELLecSA signal in treated group vs sham treatment” value (E. coli ATCC 8739) was “significant increase”.

For `CC(C)(O/N=C(\C(=O)N[C@@H]1C(=O)N2C(C(=O)[O-])=C(C[n+]3ccccc3)CS[C@H]12)c1csc(N)n1)C(=O)O` [ceftazidime], the “susceptibility of amp-C mutant E. cloacae” value [1] was “resistant”.

For `Cc1nnc(SCC2=C(C(=O)O)N3C(=O)[C@@H](NC(=O)Cn4cnnn4)[C@H]3SC2)s1` [cefazolin], the “treatment efficacy from increase or spike in ELLecSA signal over time” value (E. cloacae) was “ineffective” and the “susceptibility of E. cloacae to the antibiotic” value (“susceptibility of E. cloacae” for short) (E. cloacae) was “resistant”.

`CC(=O)OCC1=C(C(=O)O)N2C(=O)[C@@H](NC(=O)Cc3cccs3)[C@H]2SC1` [Cefalotin] was tested, and the “susceptibility of E. cloacae” value (E. cloacae) was “naturally resistant”.

With `CO/N=C(\C(=O)N[C@@H]1C(=O)N2C(C(=O)[O-])=C(C[N+]3(C)CCCC3)CS[C@H]12)c1csc(N)n1` [cefepime] the “susceptibility of the E. coli strain” value [2] was “intermediate susceptibility”, the “ELLecSA levels, increase over baseline (no antibiotic)” value (E. coli ATCC 8739) was “six” and the “ELLecSA signal in treated group vs sham treatment” value (E. coli ATCC 8739) was “significant increase”.

With `CO/N=C(\C(=O)N[C@@H]1C(=O)N2C(C(=O)O)=C(CSc3nc(=O)c(=O)[nH]n3C)CS[C@H]12)c1csc(N)n1` [ceftriaxone] the “treatment efficacy from increase or spike in ELLecSA signal over time” value (E. cloacae) was “effective”, the “time to MAMP release after addition of the active antibiotic” value (E. cloacae; about 5e7 CFU Enterobacter cloacae) was no more than 30 min and the “susceptibility of E. cloacae” value (E. cloacae) was “susceptible”.

For `NCC[C@H](O)C(=O)N[C@@H]1C[C@H](N)[C@@H](O[C@H]2O[C@H](CN)[C@@H](O)[C@H](O)[C@H]2O)[C@H](O)[C@H]1O[C@H]1O[C@H](CO)[C@@H](O)[C@H](N)[C@H]1O` [amikacin], the “susceptibility of the E. coli strain” value [2] was “sensitive”.
